Laboratory results reported in patent publication US20100160391A1, “Substituted Aminopyridines as Fluorescent Reporters for Amide Hydrolases” (priority 2006, published 2010).
Marks after values point to notes of the source that are not given here. One block for each compound: values may come before it.

Columns and labels:
[1] = system: amidases, microsomes from High Five cells; assay: Specific activity, microsomes from High Five cells; conditions: pH 8.0, 37° C.; NM = not measurable at the same protein concentration as other substrates
Experimental: Preparation of recombinant human FAAH. Transgenic expression of the human FAAH in a baculovirus system was performed by following the method described in Nishi et al., Arch. […] The cDNA encoding human FAAH (GenBank Accession No. NM—001441) was amplified by PCR using a human liver cDNA library (Invitrogen; Carlsbad, Calif.) as a template. The primer pair was 5′-[sequence]-3′ and 5′-[sequence]-3′. BglII and EcoRI endonuclease sites (underlined) were incorporated just upstream of the start codon and downstream of the stop codon of the coding sequence of FAAH, respectively. The PCR products were cloned into a pCR2.1 vector (Invitrogen) and the nucleotide sequence was verified by DNA sequencing. The cDNA fragments were then excised and directionally ligated to the BglII and EcoRI sites of the baculovirus transfer vector pAcUW21 (Lopez-Ferber et al., Baculovirus transfer vectors, in “Baculovirus Expression Protocols,” Richardson (Ed.), pp 25-63, Humana Press, Totowa, N.J., 1995). Recombinant baculoviruses harboring the human FAAH gene, Ac-hFAAH, were generated by co-transfection of Spodoptera frugiperda-derived Sf21 cells with the recombinant transfer vector plasmid and Bsu36I-cleaved BacPAK6 viral DNA (Clontech Laboratories; Mountain View, Calif.) as described in O'Reilly et al., Baculovirus Expression Vectors: A Laboratory Manual, Oxford University Press, New York, 1992. Trichoplusia ni-derived High Five cells (1×10^6 cells/ml) were inoculated with a high titer of Ac-hFAAH. At 72 hours post-infection, the infected cells were harvested by centrifugation at 2,000×g for 20 min at 4° C. and suspended in 50 mM Tris-HCl (pH 8.0) containing 150 mM NaCl, 1 mM EDTA, 1 μM pepstatin, 100 μM leupeptin, and 0.1 mg/ml aprotinin. The cell suspension was then homogenized using a Polytron homogenizer and centrifuged at 10,000×g for 20 min at 4° C. […]
Comparison of the lowest detection limits of protein concentration of FAAH toward colorimetric and fluorescent substrates. […] The lowest detection limits of microsomal fatty acid amide hydrolase (FAAH) by substrates were determined by the fact that the signal at 10 min after kinetic measurements are equal to or over three times the noise or basal line at 0 min. Colorimetric substrate (16) assays were performed in clear 96-well microtititer plates using an absorbance wavelength at 382 nm. The fluorescent substrates containing 5-amino-2-methoxypyridine (e.g., 10, 13) were measured at an excitation wavelength (302 nm), emission wavelength (396 nm), and auto cutoff wavelength (325 nm). Similarly, the fluorescent substrates containing 5-amino-2-methoxy-6-methylpyridine (e.g., 11, 14, and 17) were measured at an excitation wavelength (304 nm), emission wavelength (392 nm), and an auto cutoff wavelength of 325 nm. […]

[2] = target: T1, human FAAH, microsomes from FAAH cells (Homo sapiens, UniProt O00519); assay: Specific activity, microsomes from FAAH cells; type: biochemical
T1 construct: made in house; host or cells: Trichoplusia ni High Five cells infected with recombinant baculovirus Ac-hFAAH; microsomal fraction
T1 sequence (O00519 1-579): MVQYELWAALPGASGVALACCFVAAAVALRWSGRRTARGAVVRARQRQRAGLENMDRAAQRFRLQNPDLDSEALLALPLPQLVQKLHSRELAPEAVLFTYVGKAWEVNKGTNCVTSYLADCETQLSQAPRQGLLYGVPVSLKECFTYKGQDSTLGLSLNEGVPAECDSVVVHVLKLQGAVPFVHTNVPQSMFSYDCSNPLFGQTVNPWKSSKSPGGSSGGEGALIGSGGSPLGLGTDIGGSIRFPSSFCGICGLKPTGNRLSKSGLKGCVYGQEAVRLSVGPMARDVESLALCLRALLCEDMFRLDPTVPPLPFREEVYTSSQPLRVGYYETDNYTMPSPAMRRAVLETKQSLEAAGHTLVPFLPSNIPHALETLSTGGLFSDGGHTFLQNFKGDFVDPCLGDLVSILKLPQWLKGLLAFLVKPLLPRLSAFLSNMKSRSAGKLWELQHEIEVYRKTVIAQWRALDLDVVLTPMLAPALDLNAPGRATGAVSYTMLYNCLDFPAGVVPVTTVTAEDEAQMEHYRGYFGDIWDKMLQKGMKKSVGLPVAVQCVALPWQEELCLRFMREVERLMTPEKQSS
Experimental: (§1) Preparation of recombinant human FAAH. Transgenic expression of the human FAAH in a baculovirus system was performed by following the method described in Nishi et al., Arch. Biochem. Biophys., 445:115-123 (2006). The cDNA encoding human FAAH (GenBank Accession No. NM_001441) was amplified by PCR using a human liver cDNA library (Invitrogen; Carlsbad, Calif.) as a template. The primer pair was 5′-[…]-3′ and 5′-[…]-3′. BglII and EcoRI endonuclease sites (underlined) were incorporated just upstream of the start codon and downstream of the stop codon of the coding sequence of FAAH, respectively. The PCR products were cloned into a pCR2.1 vector (Invitrogen) and the nucleotide sequence was verified by DNA sequencing. The cDNA fragments were then excised and directionally ligated to the BglII and EcoRI sites of the baculovirus transfer vector pAcUW21 (Lopez-Ferber et al., Baculovirus transfer vectors, in “Baculovirus Expression Protocols,” Richardson (Ed.), pp 25-63, Humana Press, Totowa, N.J., 1995). Recombinant baculoviruses harboring the human FAAH gene, Ac-hFAAH, were generated by co-transfection of Spodoptera frugiperda-derived Sf21 cells with the recombinant transfer vector plasmid and Bsu36I-cleaved BacPAK6 viral DNA (Clontech Laboratories; Mountain View, Calif.) as described in O'Reilly et al., Baculovirus Expression Vectors: A Laboratory Manual, Oxford University Press, New York, 1992. Trichoplusia ni-derived High Five cells (1×10^6 cells/ml) were inoculated with a high titer of Ac-hFAAH. At 72 hours post-infection, the infected cells were harvested by centrifugation at 2,000×g for 20 min at 4° C. and suspended in 50 mM Tris-HCl (pH 8.0) containing 150 mM NaCl, 1 mM EDTA, 1 μM pepstatin, 100 μM leupeptin, and 0.1 mg/ml aprotinin. The cell suspension was then homogenized using a Polytron homogenizer and centrifuged at 10,000×g for 20 min at 4° C. The microsomal fraction was collected by ultracentrifugation of the supernatant at 100,000×g for 60 min at 4° C. The pellet was resuspended in 20 mM Tris-HCl (pH 8.0) containing 10% (w/v) glycerol and 1% (w/v) Triton-X 100 and stored at −80° C. until use.
(§2) Comparison of the lowest detection limits of protein concentration of FAAH toward colorimetric and fluorescent substrates. In general, all assays were performed in 96-well styrene flat-bottom microtiter plates with a Spectra Max M2 spectrophotometer at 37° C. for […]. The total volume of each well was 201 μl consisting of 0.1 M sodium phosphate buffer (pH 8.0) (190 μl) containing 1% glycerol and 0.1% Triton-X 100, stock or diluted protein solution (10 μl), and the substrate solution (1 μl) in ethanol (final concentration 200 μM for 10, 11, 13 or 14) or in DMSO (final concentration 25 μM for 12, 15, or 16; 50 μM for 17). The lowest detection limits of microsomal fatty acid amide hydrolase (FAAH) by substrates were determined by the fact that the signal at 10 min after kinetic measurements are equal to or over three times the noise or basal line at 0 min. Colorimetric substrate (16) assays were performed in clear 96-well microtititer plates using an absorbance wavelength at 382 nm. The fluorescent substrates containing 5-amino-2-methoxypyridine (e.g., 10, 13) were measured at an excitation wavelength (302 nm), emission wavelength (396 nm), and auto cutoff wavelength (325 nm). Similarly, the fluorescent substrates containing 5-amino-2-methoxy-6-methylpyridine (e.g., 11, 14, and 17) were measured at an excitation wavelength (304 nm), emission wavelength (392 nm), and an auto cutoff wavelength of 325 nm. In addition, an excitation wavelength (366 nm), emission wavelength (496 nm), and auto cutoff wavelength (495 nm) were used for the substrates (e.g., 12 and 15) containing 7-amino-4-trifluoromethyl coumarin.
Specific activity determination. The assays for specific activities were performed as described above for the sensitivity assay. […]

[3] = target: T2, microsomal fatty acid amide hydrolase (FAAH) (Homo sapiens, UniProt O00519); assay: Lowest detection limits of microsomal FAAH toward colorimetric and fluorescent substrates; type: biochemical; conditions: for base line, Average: 0 min; for signal, Average: 10 min
T2 construct: made in house; host or cells: Trichoplusia ni High Five cells infected with recombinant baculovirus Ac-hFAAH; microsomal fraction
T2 sequence (O00519 1-579): T1 sequence (O00519 1-579)
Experimental: as §1, §2

[4] = target: T3, fatty acid amide hydrolase (FAAH) (Homo sapiens, UniProt O00519); assay: Kinetic study of FAAH toward substrates; type: biochemical
T3 construct: made in house; host or cells: Trichoplusia ni High Five cells infected with recombinant baculovirus Ac-hFAAH; microsomal fraction
T3 sequence (O00519 1-579): T1 sequence (O00519 1-579)
Experimental: as §1
Kinetic study. The kinetic assays were also performed as described above for the sensitivity assay. Briefly, a total volume of 201 μl contained 0.1 M sodium phosphate buffer (pH 8.0) (190 μl) with 1% glycerol and 0.1% Triton-X 100, protein solution (10 μl), and substrate solution (1 μl). The protein content was 0.67 μg per well (201 μl). The concentration of substrate (13) in DMSO was 200, 100, 50, 25, 12.5, 6.25, 3.13, 1.56, or 0.78 μM. Similarly, the concentration of substrate (17) in DMSO was 100, 50, 25, 12.5, 6.25, 3.13, 1.56, 0.78, or 0.39 μM. Four replicates were applied for each concentration. Reported kinetic data (km and Vmax) were analyzed by the SigmaPlot Enzyme Kinetics software (2001) using the Michaelis-Menten equation for all concentrations.

[5] = Maximal excitation and emission wavelengths; type: physicochemical; conditions: 50 μM in 0.1 M phosphate buffer, 30° C.; SD ±2 nm
Experimental: Maximal excitation and emission wavelengths. A stock solution in ethanol of each compound (10 μl, 5 mM) was added to 990 μl of sodium phosphate buffer (0.1 M, pH 8.0, final substrate concentration 50 μM) in a 1-cm quartz cuvette. The quartz cuvette was scanned from 200 to 500 nm for absorption spectra with a Spectra Max M2 spectrophotometer. Maximal excitation and emission wavelengths were obtained from scanning from 250 to 600 nm and 360 to 600 nm by a 2 nm interval at 30° C., respectively.

[6] = Dependence of relative fluorescent intensity on pH values; type: physicochemical; conditions: pH 6.0 to 9.0, sodium phosphate or Tris/HCl buffer, 25 μM
Experimental: The dependence of relative fluorescent intensity on pH values. 5-amino-2-methoxypyridine (6) was used to determine whether protonization/de-protonization affects the relative fluorescent intensities of the reporters. A stock solution of (6) in ethanol (5 μl, 5 mM) was added to 995 μl 0.1 M sodium phosphate buffer (from pH 6.0 to pH 8.0) or 0.1 M Tris/HCl buffer (pH 9.0) in a quartz cuvette (final substrate concentration 25 μM). Relative fluorescent unit/intensity (RFU) for emission spectra was recorded by a 2 nm interval at room temperature using a fixed excitation wavelength (λ=302 nm). The RFU of each pH value was an average of triplicates and the standard deviation for each point was less than 1%. Similarly, the RFU of the excitation spectrum was recorded by a 2 nm interval at room temperature using a fixed emission wavelength (λ=396 nm) in 0.1 M phosphate buffer (pH 8.0).

[7] = Fluorescence quantum yield; type: physicochemical; conditions: 10 μM, 1% ethanol in water, excitation 290 nm, standard 3-aminopyridine; SD under ±5%
Experimental: Quantum yield. The fluorescence quantum yield, φf, was calculated according to the following equation:
ØF=Østd*(I/Istd)*(ODstd/OD)*(n/nstd)^2,
wherein ØF is the quantum yield of the tested fluorescent reporter; Østd is the fluorescence quantum yield of the standard; I and Istd are the integrated emission intensities of the sample and the standard, respectively; OD and ODstd are the absorbance of the sample and standard, respectively, at the desired wavelength λex; and n and nstd are the indexes of refraction of the sample and standard solutions, respectively (Horspool and Song (Eds.), CRC Handbook of Organic Photochemistry I, pp 234-235, CRC Press, Boca Raton, Fla., 1995).
In this example, 3-aminopyridine in water at the maximal excitation wavelength of 290 nm was used as a standard (Østd=0.32, εmax=2800 M^−1 cm^−1) (see, e.g., Weisstuch et al., J. Phys. Chem., 72:1982-1987 (1968)). In order to minimize inner filter effects, the optical densities of samples at the excitation wavelength (λ=290 nm) were kept in the range of 0.095-0.13 (less than 0.150-0.165). The final concentration of each tested sample in a quartz cuvette was 10 μM with 1% ethanol in water, same as that for the standard. The integrated area of fluorescent intensity for the standard or the samples was based on the area between 360 and 500 nm. The difference of the index of refraction between the standard and the sample was neglected because (1) all measurements were performed in the same quartz cuvette and spectrofluorimeter; (2) the final concentrations of the sample and the standard were the same; and (3) the structures of the sample and standard were very similar, i.e., only one pyridine ring. The quantum yields presented in Table 1 were based on calculation of the average of OD and integrated fluorescent intensities of triplicates. The standard deviation for each quantum yield was less than ±5%.

[8] = Molar extinction coefficient of fluorescent reporters; type: physicochemical; conditions: H2O containing 1% ethanol, 290 nm, 30° C., 10-50 μM
Experimental: Molar extinction coefficient. According to Beer's law, Aλ=ε*C*L, where Aλ is the absorbance at wavelength (λ nm); ε is called the molar extinction coefficient; L is the width of the sample cuvette; and C is the concentration of the solute. In this example, a series of concentrations falling between 10 and 50 μM (final concentration) for each fluorescent reporter was used for determination of the molar extinction coefficient. Assays were performed in a quartz cuvette (1 cm optical passage). 10 μl of a stock solution of a reporter in ethanol (1, 2, 3, 4, or 5 mM) was added to 990 μl H2O. The resulting mixture was degassed by sonication with ultrasonic cleaner Model 750 (VWR International; Wester, Pa.) for 10 seconds at a power level of 9. Measurements were performed with a Spectra Max M2 spectrophotometer (Molecular Devices; Sunnyvale, Calif.) at a wavelength of 290 nm. A slope (or extinction coefficient) was obtained by using an average absorbance of triplicate samples.

[9] = protein 0.11 (13), 0.67 (14), 100 (15), 0.5 (17) μg/well, 200 μM (13),(14), 25 μM (15), 50 μM (17)
[10] = pH 8.0, 37° C., 0.67 μg protein per well, Michaelis-Menten
[11] = FAAH sensitivity assay, Table 2
[12] = absorbance 382 nm, protein 100 μg/well, 25 μM

SMILES: CCCCC/C=C\C/C=C\C/C=C\C/C=C\CCCC(=O)Nc1ccc(OC)nc1 [Compound 17]
Specific activity, Microsomes from High Five cells [1]: 5.62 ± 0.67 pmol/min/mg protein | enhancement of activity, microsomes from FAAH-expressing cells compared with High Five cells [2]: 4180 times | Specific activity, Microsomes from FAAH cells ([2]; pH 8): 23.5 ± 0.7 nmol/min/mg protein | base line, Average [3, 9]: 148 RFU | signal, Average [3, 9]: 559* RFU | Protein, lowest detection limit of microsomal FAAH (signal at 10 min ≥ three times base line) ([3]; pH 8): 0.5 μg/200 μ′ | lowest detection limit of protein ([3]; signal at 10 min equal to three times base line): 2.5 μg protein/ml | Selectivity ratio ([4]; Vmax/Km of substrate over that of oleamide (5.5 × 10^−2)): 54.5 | Km [4, 10]: 12.5 µM | Vmax [4, 10]: 36.7 nmol/min/mg

Em, maximal emission wavelength [5]: 396 nm | Ex, maximal excitation wavelength [5]: 302 nm | relative fluorescent intensity of excitation or emission as function of pH [6]: increased with an increase of pH value | ØF, fluorescence quantum yield [7]: 0.95 | εmax, molar extinction coefficient [8]: 2340 M⁻¹ cm⁻¹
SMILES: COc1ccc(N)cn1 [Compound 6, 5-amino-2-methoxypyridine]

SMILES: COc1ccc(NC(C)=O)cn1 [Compound 10, N-(6-methoxypyridin-3-yl) acetamide]
Specific activity, Microsomes from High Five cells [1]: 56 ± 2 pmol/min/mg protein

melting point: 136.6 to 137.1 °C | base line, Average [3, 9]: 132 RFU | signal, Average [3, 9]: 161 RFU | times less sensitive than substrate (13) [3, 11]: at least 900 times | times less sensitive than substrate (14) [3, 11]: ≥ 150 times
SMILES: CCCCCCCC(=O)Nc1ccc2c(C(F)(F)F)cc(=O)oc2c1 [Compound 15, N-(4-(trifluoromethyl)-2-oxo-2H-chromen-7-yl) octanamide]

melting point: 80.9 to 81.6 °C | base line, Average [3, 12]: 0.16 OD | signal, Average [3, 12]: 0.18 OD
SMILES: CCCCCCCC(=O)Nc1ccc([N+](=O)[O-])cc1 [Compound 16, N-(4-nitrophenyl) octanamide]
